{
  "source": "patent US10322074B2",
  "about": "“Apparatus and method for preparing cosmeceutical ingredients containing epi-dermal delivery mechanisms” (PPP&C INC., priority 2015, dated 2019)",
  "assay": "Phase behavior and solubility of lipid in dense CO2 / threshold pressure for precipitation",
  "type": "physicochemical",
  "source_text": "Prior to liposome or niosome formation, the phase behavior and solubility of the chosen lipid in dense CO2 were investigated to verify the suitability of the lipid for dense gas processing and, in particular LPLTVs processing.\nKnowledge of the threshold pressure for precipitation of lipid from solution is also a key factor for design of the LPLTVs process in order to determine the maximum pressure for the technique so that yield is enhanced and loss of lipid in the expansion chamber minimized. The solid state of 1,2 distearoyl-sn-glycero-3-phosphocholine (DSPC) was maintained when the lipid was exposed to CO2 below 350 bar at 50° C. and 150 bar at 70° C. The solubility of DSPC in pure CO2 at 50° C. and pressures up to 280 bar was considered negligible. […] Use of higher pressures or larger amounts of organic solvent are undesirable, thus the results of the solubility study are in agreement with the literature in concluding that effects arising from poor solubility of lipids in dense CO2 are not easily overcome.\nIn prior art, at 50° C. and 250 bar, DSPC required the addition of 4.8% v/v ethanol as well as the use of a recycling system for homogeneous dissolution of the lipid in CO2. In the current embodiment, the use of the LPLTVs process eliminates the current limitations of dense gas techniques associated with solubilizing lipids using a supercritical fluid and simply utilizes a dense gas as an aerosolization aid. The threshold pressure for the precipitation of DSPC from a 10 mg/mL ethanol solution at 22° C. was 55 bar.\nPrecipitation was first observed at 58, 55, and 56 bar for the 5, 10, and 20 mg/mL solutions of DSPC and cholesterol (70:30 lipid to cholesterol weight ratio) in ethanol at 22° C., respectively. Therefore it can be seen that cholesterol had negligible effect on the threshold pressure. […] A faster pressurization rate is preferable for the embodiments LPLTVs process in order to minimize the time requirement for each experiment. During this experiment, noticeable expansion only started to occur after 50 bar was reached. […]",
  "data": [
    {"smiles": "CCCCCCCCCCCCCCCCCC(=O)OC[C@H](COP(=O)([O-])OCC[N+](C)(C)C)OC(=O)CCCCCCCCCCCCCCCCC", "note": "[DSPC, 1,2 distearoyl-sn-glycero-3-phosphocholine]", "values": [
      {"measurement": "threshold pressure for precipitation", "setting": "10 mg/mL ethanol solution, 22° C.", "value": 55, "unit": "bar"},
      {"measurement": "effect of ethanol co-solvent on solubility in CO2", "setting": "5 mol % ethanol, 50° C., 250 bar", "value": "did not significantly improve"},
      {"measurement": "solubility in pure CO2", "setting": "50° C., pressures up to 280 bar", "value": "negligible"}
    ]}
  ]
}
